Assay results as given in PubChem BioAssay AID256 (DTP/NCI, 2004).
“And” between values parts separate entries of the source, which are not always exact repeats. Equal entries are not always repeated. Inconclusive results and toxic doses are left out.

Test system: CD2F1 mice, L1210 leukemia ip, survival T/C
Test: NCI In Vivo Anticancer Drug Screen. Data for tumor model L1210 Leukemia (intraperitoneal) in CD2F1 (CDF1) mice
Details: higher = longer survival
Procedure, shortened: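 Ratio T/C, where T is the treated-group value and C the vehicle-dosed control value, from mice implanted with a transplantable tumor.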

[1] = endpoint: mean survival time, dose: 25.0 mg/kg/injection, schedule: Q01DX009 (ip), vehicle: saline
[2] = endpoint: mean survival time, dose: 50.0 mg/kg/injection, schedule: Q01DX009 (ip), vehicle: saline
[3] = endpoint: mean survival time, dose: 100.0 mg/kg/injection, schedule: Q01DX009 (ip), vehicle: saline with Tween-80
[4] = endpoint: mean survival time, dose: 200.0 mg/kg/injection, schedule: Q01DX009 (ip), vehicle: saline with Tween-80
[5] = endpoint: mean survival time, dose: 400.0 mg/kg/injection, schedule: Q01DX009 (ip), vehicle: saline with Tween-80
[6] = endpoint: mean survival time, dose: 50.0 mg/kg/injection, schedule: Q01DX001 (ip), vehicle: saline
[7] = endpoint: mean survival time, dose: 100.0 mg/kg/injection, schedule: Q01DX001 (ip), vehicle: saline
[8] = endpoint: mean survival time, dose: 200.0 mg/kg/injection, schedule: Q01DX001 (ip), vehicle: saline
[9] = endpoint: mean survival time, dose: 400.0 mg/kg/injection, schedule: Q01DX001 (ip), vehicle: saline
[10] = endpoint: mean survival time, dose: 100.0 mg/kg/injection, schedule: Q04DX003 (ip), vehicle: saline with Tween-80
[11] = endpoint: mean survival time, dose: 200.0 mg/kg/injection, schedule: Q04DX003 (ip), vehicle: saline with Tween-80
[12] = endpoint: mean survival time, dose: 400.0 mg/kg/injection, schedule: Q04DX003 (ip), vehicle: saline with Tween-80
[13] = endpoint: mean survival time, dose: 100.0 mg/kg/injection, schedule: Q04DX003 (ip), vehicle: saline
[14] = endpoint: mean survival time, dose: 100.0 mg/kg/injection, schedule: Q01DX009 (ip), vehicle: Klucel (hydroxypropylcellulose) (HPC)
[15] = endpoint: mean survival time, dose: 200.0 mg/kg/injection, schedule: Q01DX009 (ip), vehicle: Klucel (hydroxypropylcellulose) (HPC)
[16] = endpoint: mean survival time, dose: 400.0 mg/kg/injection, schedule: Q01DX009 (ip), vehicle: Klucel (hydroxypropylcellulose) (HPC)
[17] = endpoint: mean survival time, dose: 200.0 mg/kg/injection, schedule: Q01DX001 (ip), vehicle: saline with Tween-80

CC(=O)Oc1c(C)[nH]ccc1=O
T/C (endpoint: mean survival time, dose: 25.0 mg/kg/injection, schedule: Q01DX009 (ip), vehicle: saline with Tween-80): 97 % of control | T/C [1]: 100 % of control | T/C (endpoint: mean survival time, dose: 50.0 mg/kg/injection, schedule: Q01DX009 (ip), vehicle: saline with Tween-80): 113 % of control and 107 % of control | T/C [2]: 100 % of control | T/C [3]: 118 % of control and 122 % of control | T/C (endpoint: mean survival time, dose: 100.0 mg/kg/injection, schedule: Q01DX009 (ip), vehicle: saline): 111 % of control | T/C [4]: 150 % of control | T/C (endpoint: mean survival time, dose: 200.0 mg/kg/injection, schedule: Q01DX009 (ip), vehicle: saline): 122 % of control | T/C [5]: 157 % of control

O=C1C=CC(=CC=C2C=CN(CCCCCCCCCCCO)C=C2)C=C1
T/C (endpoint: median survival time, dose: 1.56 mg/kg/injection, schedule: Q01DX005 (ip), vehicle: saline with Tween-80): 96 % of control | T/C (endpoint: median survival time, dose: 2.25 mg/kg/injection, schedule: Q01DX005 (ip), vehicle: saline with Tween-80): 102 % of control and 105 % of control | T/C (endpoint: median survival time, dose: 3.13 mg/kg/injection, schedule: Q01DX005 (ip), vehicle: saline with Tween-80): 107 % of control | T/C (endpoint: median survival time, dose: 3.75 mg/kg/injection, schedule: Q01DX005 (ip), vehicle: saline with Tween-80): 102 % of control and 105 % of control | T/C (endpoint: median survival time, dose: 6.25 mg/kg/injection, schedule: Q01DX005 (ip), vehicle: saline with Tween-80): 117 % of control and 109 % of control | T/C (endpoint: median survival time, dose: 10.4 mg/kg/injection, schedule: Q01DX005 (ip), vehicle: saline with Tween-80): 118 % of control | T/C (endpoint: median survival time, dose: 10.41 mg/kg/injection, schedule: Q01DX005 (ip), vehicle: saline with Tween-80): 118 % of control | T/C (endpoint: median survival time, dose: 12.5 mg/kg/injection, schedule: Q01DX005 (ip), vehicle: saline with Tween-80): 119 % of control | T/C (endpoint: median survival time, dose: 17.35 mg/kg/injection, schedule: Q01DX005 (ip), vehicle: saline with Tween-80): 119 % of control | T/C (endpoint: median survival time, dose: 17.4 mg/kg/injection, schedule: Q01DX005 (ip), vehicle: saline with Tween-80): 121 % of control | T/C (endpoint: median survival time, dose: 25.0 mg/kg/injection, schedule: Q01DX005 (ip), vehicle: saline with Tween-80): 92 % of control

C=CCc1cc(O)c(CC=C)cc1O
T/C (endpoint: mean survival time, dose: 100.0 mg/kg/injection, schedule: Q04DX002 (ip), vehicle: saline with Tween-80): 95 % of control | T/C (endpoint: mean survival time, dose: 200.0 mg/kg/injection, schedule: Q04DX002 (ip), vehicle: saline with Tween-80): 95 % of control

CCOC(=O)CN1C(=O)NC(c2ccccc2)(c2ccccc2)C1=O
T/C [3]: 94 % of control | T/C (endpoint: mean survival time, dose: 100.0 mg/kg/injection, schedule: Q04DX003 (ip), vehicle: acetone): 97 % of control | T/C (endpoint: mean survival time, dose: 200.0 mg/kg/injection, schedule: Q04DX003 (ip), vehicle: acetone): 101 % of control | T/C [5]: 94 % of control | T/C (endpoint: mean survival time, dose: 400.0 mg/kg/injection, schedule: Q04DX003 (ip), vehicle: acetone): 103 % of control

COc1ccc(C(=O)C2(O)Oc3ccccc3C2=O)cc1 (centres undefined)
T/C [6]: 98 % of control | T/C [7]: 98 % of control | T/C [8]: 98 % of control | T/C [9]: 117 % of control

O=[N+]([O-])c1ccc(OCCBr)cc1
T/C (endpoint: mean survival time, dose: 100.0 mg/kg/injection, schedule: Q01DX009 (ip), vehicle: other): 91 % of control | T/C (endpoint: mean survival time, dose: 200.0 mg/kg/injection, schedule: Q01DX009 (ip), vehicle: other): 98 % of control | T/C (endpoint: mean survival time, dose: 400.0 mg/kg/injection, schedule: Q01DX009 (ip), vehicle: other): 94 % of control

O=C(Nc1cccc(S(=O)(=O)F)c1)c1cccc([N+](=O)[O-])c1
T/C [10]: 105 % of control | T/C [11]: 102 % of control | T/C [12]: 96 % of control

NC(=O)C(Br)Cc1cccc(Cl)c1 (centres undefined)
T/C [6]: 102 % of control | T/C [7]: 100 % of control | T/C [8]: 100 % of control | T/C [9]: 100 % of control

O=C(C[n+]1ccc2ccccc2c1)c1ccc(Br)cc1
T/C (endpoint: mean survival time, dose: 12.5 mg/kg/injection, schedule: Q04DX003 (ip), vehicle: saline): 98 % of control | T/C [1]: 98 % of control | T/C (endpoint: mean survival time, dose: 25.0 mg/kg/injection, schedule: Q04DX003 (ip), vehicle: saline): 98 % of control | T/C [2]: 102 % of control | T/C (endpoint: mean survival time, dose: 50.0 mg/kg/injection, schedule: Q04DX003 (ip), vehicle: saline): 101 % of control | T/C [13]: 97 % of control

COC(=O)C1=NNC(C(=O)OC)=C(c2ccccc2)C(c2ccccc2)=N1
T/C (endpoint: mean survival time, dose: 12.5 mg/kg/injection, schedule: Q01DX009 (ip), vehicle: Klucel (hydroxypropylcellulose) (HPC)): 95 % of control | T/C (endpoint: mean survival time, dose: 25.0 mg/kg/injection, schedule: Q01DX009 (ip), vehicle: Klucel (hydroxypropylcellulose) (HPC)): 91 % of control | T/C (endpoint: mean survival time, dose: 50.0 mg/kg/injection, schedule: Q01DX009 (ip), vehicle: Klucel (hydroxypropylcellulose) (HPC)): 98 % of control | T/C [14]: 101 % of control | T/C [15]: 109 % of control | T/C [16]: 114 % of control

Cc1ccc(S(=O)(=O)OC2CCCCC2c2cccc(Cl)c2)cc1 (centres undefined)
T/C (endpoint: mean survival time, dose: 75.0 mg/kg/injection, schedule: Q01DX001 (ip), vehicle: other): 92 % of control | T/C (endpoint: mean survival time, dose: 150.0 mg/kg/injection, schedule: Q01DX001 (ip), vehicle: other): 88 % of control | T/C (endpoint: mean survival time, dose: 300.0 mg/kg/injection, schedule: Q01DX001 (ip), vehicle: other): 101 % of control

CC[P+](C)(CC)c1cccc(OC(=O)NC)c1
T/C (endpoint: mean survival time, dose: 0.05 mg/kg/injection, schedule: Q01DX001 (ip), vehicle: saline): 96 % of control | T/C (endpoint: mean survival time, dose: 0.1 mg/kg/injection, schedule: Q01DX001 (ip), vehicle: saline): 102 % of control | T/C (endpoint: mean survival time, dose: 0.2 mg/kg/injection, schedule: Q01DX001 (ip), vehicle: saline): 104 % of control

O=C(Nc1cc2ccccc2o1)N1CCOCC1
T/C (endpoint: mean survival time, dose: 50.0 mg/kg/injection, schedule: Q01DX001 (ip), vehicle: saline with Tween-80): 94 % of control | T/C (endpoint: mean survival time, dose: 100.0 mg/kg/injection, schedule: Q01DX001 (ip), vehicle: saline with Tween-80): 97 % of control | T/C [17]: 100 % of control

NC1(C(=O)O)CCCC1.[Zn+2]
T/C [7]: 100 % of control | T/C [9]: 120 % of control

CCCCOC(=S)SCCSC(=S)OCCCC
T/C [3]: 101 % of control | T/C [4]: 98 % of control

CCOC(=O)/C(C)=C(/N)c1ccccc1
T/C [10]: 98 % of control | T/C [11]: 95 % of control | T/C [12]: 92 % of control

O=C(C[n+]1cccc(C(=O)Nc2ccc(Cl)cc2)c1)NCc1ccccc1
T/C [13]: 97 % of control | T/C (endpoint: mean survival time, dose: 200.0 mg/kg/injection, schedule: Q04DX003 (ip), vehicle: saline): 94 % of control | T/C (endpoint: mean survival time, dose: 400.0 mg/kg/injection, schedule: Q04DX003 (ip), vehicle: saline): 102 % of control

O=C(Nc1ccc2ccccc2c1)OC1CCS(=O)(=O)C1 (centres undefined)
T/C (endpoint: mean survival time, dose: 75.0 mg/kg/injection, schedule: Q04DX003 (ip), vehicle: saline): 102 % of control | T/C (endpoint: mean survival time, dose: 150.0 mg/kg/injection, schedule: Q04DX003 (ip), vehicle: saline): 102 % of control | T/C (endpoint: mean survival time, dose: 300.0 mg/kg/injection, schedule: Q04DX003 (ip), vehicle: saline): 98 % of control

Nc1nc(N)c2nc(-c3ccc(Cl)c(Cl)c3)c(N)nc2n1
T/C (endpoint: mean survival time, dose: 12.5 mg/kg/injection, schedule: Q01DX009 (ip), vehicle: water): 97 % of control | T/C (endpoint: mean survival time, dose: 25.0 mg/kg/injection, schedule: Q01DX009 (ip), vehicle: water): 97 % of control | T/C (endpoint: mean survival time, dose: 50.0 mg/kg/injection, schedule: Q01DX009 (ip), vehicle: water): 108 % of control | T/C (endpoint: mean survival time, dose: 100.0 mg/kg/injection, schedule: Q01DX009 (ip), vehicle: water): 93 % of control

CCOC(=O)CCN1C(=O)NC(C)(c2ccccc2)C1=O (centres undefined)
T/C [14]: 100 % of control | T/C [15]: 98 % of control | T/C [16]: 114 % of control

CCOC(=O)Nc1cc2c(c(N)n1)N=C(c1ccc3ccccc3c1)CN2
T/C (endpoint: median survival time, dose: 0.93 mg/kg/injection, schedule: Q01DX009 (ip), vehicle: saline with Tween-80): 122 % of control | T/C (endpoint: median survival time, dose: 1.0 mg/kg/injection, schedule: Q01DX009 (ip), vehicle: saline with Tween-80): 112 % of control | T/C (endpoint: median survival time, dose: 1.87 mg/kg/injection, schedule: Q01DX009 (ip), vehicle: saline with Tween-80): 113 % of control | T/C (endpoint: median survival time, dose: 3.75 mg/kg/injection, schedule: Q01DX009 (ip), vehicle: saline with Tween-80): 121 % of control | T/C (endpoint: median survival time, dose: 15.0 mg/kg/injection, schedule: Q01DX009 (ip), vehicle: saline with Tween-80): 113 % of control | T/C (endpoint: median survival time, dose: 16.0 mg/kg/injection, schedule: Q01DX009 (ip), vehicle: saline with Tween-80): 114 % of control

C[C@H]1CP(c2ccccc2)(c2ccccc2)(c2ccccc2)O[C@@]1(C(=O)c1ccccc1)c1ccccc1
T/C [17]: 91 % of control
